Source: patent US5098921A, “Nitro-substituted aromatic or hetero-aromatic compounds for use in cancer treatment” (National Research Development Corporation, priority 1987, dated 1992)
Read-outs that look alike come from different tables or passages of the source.

What was measured:
KHT tumour cells = test: Survival of KHT tumour cells after sensitiser i.p. plus 10 Gy X-rays (KHT tumour implanted subcutaneously in C3H mice); format: in vivo
Method: In Table 2 comparison is made with 1-(2-nitro-1-imidazolyl)-3-(1-aziridino)-2-propanol (RSU-1069). All compounds were administered in phosphate buffered saline (PBS) at pH 7.4 except RB-6145 which was administered in PBS at pH 5.4.
The maximum does used was the maximum tolerated dose (MTD).

cells [1] = test: Sensitisation of cells, C1.6 (drugs made up in PBS at pH 7.4); format: cell-based; settings: drugs made up in PBS at pH 7.4 just before addition to cells
Excerpt: ^(b) Drugs made up in PBS at pH 7.4 just before addition to cells.

[2] = Toxicity to cells, 3 hours at 37° C., in air and in N2; format: cell-based; settings: air; concentration required for a surviving fraction of 10^-1; 3 hours at 37° C.; full growth medium (bicarbonate); read-out: CAir
Method: (§1) ^(a) Toxicity is 3 hours at 37° C. Concentrations are those
(§2) required for a surviving fraction of 10^-1. Drugs were made up in ful
(§3) growth medium (buffered with bicarbonate) just before addition to cells.

cells [3] = test: as above; format: cell-based; settings: for CC90: read-out: CN2; for CAir/CN2: ratio of toxic concentrations, air to N2, 180 min
Method: as §1, §2, §3

KHT tumour = test: In vivo sensitisation, scored against RSU1069 and MISO; design: species or system C3H mice; key to the marks not given beside the values; settings: scoring system relative to RSU1069 and MISO
Method: (§4) (a) C3H mice in which the KHT tumour had been implanted subcutaneously were administered RB-6145 (Example 2) intraperitoneally before treatment with radiation. The time before such treatment at which the drug was administered was such that maximum enhancement was effected. The results of such treatment are set out in Table 1 with comparison to misonidazole (MISO), etanidazole (SR 2508) and pimonidazole (Ro 03-8799). In Table 2 comparison is made with 1-(2-nitro-1-imidazolyl)-3-(1-aziridino)-2-propanol (RSU-1069). All compounds were administered in phosphate buffered saline (PBS) at pH 7.4 except RB-6145 which was administered in PBS at pH 5.4.

[4] = Maximum tolerated dose (MTD); format: in vivo, C3H mice; settings: for MTD: mouse, in vivo, ip, intraperitoneal, b203: maximum dose used was the MTD, read-out: maximum tolerated dose (MTD) = maximum dose used in Table 2
Method: as §4
The surviving fraction for 10 Gy alone is 3×10^-2. The maximum does used was the maximum tolerated dose (MTD).

[5] = Table 1, sensitiser at a dose of 200 mg/kg and 10 Gy X-rays, NONE = 1.0
[6] = Table 1, sensitiser at a dose of 200 mg/kg and 10 Gy X-rays, intraperitoneal
[7] = N2, concentration required for a surviving fraction of 10^-1, 3 hours at 37° C., full growth medium (bicarbonate)

| Structure (SMILES) | EC (enhancement ratio 1.6) (cells [1]) | CC90 at 3 h [2] | CC90 (cells [3]; 3 h) | CAir/CN2 (cells [3]) | in vivo sensitisation (KHT tumour) | enhancement ratio (KHT tumour cells; [5]) | surviving fraction (KHT tumour cells; [6]) | further results |
| --- | --- | --- | --- | --- | --- | --- | --- | --- |
| COCC(O)Cn1ccnc1[N+](=O)[O-] (stereo not drawn) [MISO, misonidazole] |  |  |  |  |  |  |  | enhancement ratio (KHT tumour cells; mouse, in vivo, 200 mg/kg): 1.5; surviving fraction (KHT tumour cells; mouse, in vivo, ip, 200 mg/kg): 1.2 × 10^-2 |
| O=[N+]([O-])c1nccn1CC(O)CNCCCl (stereo not drawn) [RB-6144, 1-(2-Nitro-1-imidazolyl)-3-(2-chloroethylamino)-2-propanol] | 250 µM | 5000 µM | 350 µM | 15 | ++ |  |  |  |
| O=[N+]([O-])c1nccn1CC(O)CNCCBr (stereo not drawn) [RB-6145, 1-(2-Nitro-1-imidazolyl)-3-(2-bromoethylamino)-2-propanol] | 150 µM | 2300 µM | 90 µM | 25 | ++++ | 2.7 | 1.8 × 10^-3 | dose-for-dose sensitisation compared with RSU-1069 (KHT tumour cells; 10 Gy X-rays): on a dose-for-dose basis it is the same as RSU-1069 as a sensitiser; surviving fraction (KHT tumour cells; Table 2, RB-6145 0.13 mmol kg^-1 (50 mg/kg) and 10 Gy X-rays): 7.6 × 10^-3; surviving fraction (KHT tumour cells; Table 2, RB-6145 0.27 mmol kg^-1 (100 mg/kg) and 10 Gy X-rays): 5.2 × 10^-3; surviving fraction (KHT tumour cells; Table 2, RB-6145 0.53 mmol kg^-1 (200 mg/kg) and 10 Gy X-rays): 1.8 × 10^-3; surviving fraction (KHT tumour cells; Table 2, RB-6145 0.80 mmol kg^-1 (300 mg/kg) and 10 Gy X-rays, 10 Gy alone 3×10^-2): 1.4 × 10^-3; doses that can be used compared with RSU-1069 ([4]; Table 2): Much higher doses of RB-6145 can be used; MTD [4]: 300 mg/kg |
| O=[N+]([O-])c1nccn1CC(O)CNCCI (stereo not drawn) [RB-6146, 1-(2-Nitro-1-imidazolyl)-3-(2-iodoethylamino)-2-propanol] | 300 µM | 2400 µM | 80 µM | 30 |  |  |  |  |
| O=[N+]([O-])c1nccn1CC(O)CNCCF (stereo not drawn) [RB-6159, 1-(2-Nitro-1-imidazolyl)-3-(2-fluoroethylamino)-2-propanol] |  | 35000 µM |  | 14 |  |  |  | CC90 (cells [3]; [7]): 2500 µM |
| O=[N+]([O-])c1nccn1CC(O)CN1CC1 (stereo not drawn) [RSU-1069, 1-(2-nitro-1-imidazolyl)-3-(1-aziridino)-2-propanol] |  |  |  |  |  |  |  | surviving fraction (KHT tumour cells; 8 mg/kg): 7.6 × 10^-3; surviving fraction (KHT tumour cells; 30 mg/kg): 4.0 × 10^-3; surviving fraction (KHT tumour cells; 50 mg/kg): 3.2 × 10^-3; surviving fraction (KHT tumour cells; 80 mg/kg): 1.6 × 10^-3; MTD [4]: 80 mg/kg |
| O=[N+]([O-])c1nccn1CC(O)CNCCO (stereo not drawn) [RSU-1137, 1-(2-nitro-1-imidazolyl)-3-(2-hydroxyethylamino)-2-propanol, reference compound] | 450 µM | 70000 µM |  | 20 | ++ |  |  | CC90 (cells [3]; [7]): 3500 µM |
| O=[N+]([O-])c1nccn1CC(O)CN1CCCCC1 (stereo not drawn) [Ro03-8799, pimonidazole] |  |  |  |  |  | 1.0 | 3 × 10^-2 |  |
| O=C(Cn1ccnc1[N+](=O)[O-])NCCO [SR 2508, etanidazole] |  |  |  |  |  | 1.6 | 1.1 × 10^-2 |  |
